{
  "source": "patent US11523995B2",
  "about": "“Compositions and methods for ablating niche cells in testis and other epithelial cells and methods relating thereto” (Duke University, priority 2017, dated 2022)",
  "key": {"enteric nerve plexus": {"system": "enteric nerve plexus", "conditions": "GI tract treated in vivo; cited from earlier work"}, "host spermatogenesis": {"system": "host spermatogenesis", "test": "Donor Sertoli cell transplantation into testis 4 days post BC treatment", "format": "in vivo, mouse", "conditions": "0.02% BC 4 days before Sox9-ECFP Sertoli cell transplantation; 8 weeks after transplantation", "experimental": "On the day of transplantation, FACS analysis was used to isolate donor Sertoli cells. Testes of Sox9-CFP mouse pups were dissected. Testicular cells were enzymatically dissociated using 1 mg/ml collagenase type IV for 15 minutes followed by incubation in 0.25% trypsin and 1 mM EDTA for 10 min at 37° C. The reaction was stopped by addition of serum and cells were washed twice. The cell suspension was filtered through a 40 μm nylon mesh and resuspended in 10% FBS+DMEM.\n10-15 μl of approximately 1×10^6/ml isolated Sertoli cells or 1×10^8/ml (testicular cells) were injected through the rete testis into the seminiferous tubules of a host mouse on day 4 or day 7 after ablation treatment. A glass needle was back-loaded with the cell suspension and 0.04% Trypan blue to track the efficiency of the injection.\nTo determine whether donor Sertoli cells can efficiently engraft drug-depleted cords, we transplanted Sertoli cells from 6.5-10.5 dpp Sox9-ECFP mouse pups. The host mouse was prepared by injection of the 0.02% BC solution 4 days prior to transplantation. Cells from a neonatal Sox9-ECFP donor testis were dissociated by enzymatic treatment, Sertoli cells were isolated by FACS, and injected into host seminiferous tubules through the rete testis (FIG. 6). […] Full spermatogenesis was detected 8 weeks after transplantation in 2 of 4 engrafted testes."}, "SSCs": {"system": "SSCs", "test": "SSC kinetics after BC treatment in DND1-EGFP mouse", "format": "in vivo", "experimental": "Host mice were anesthetized. A glass needle was back-loaded with the drug and 0.02% bromophenol blue to track the success of the injection and extent of delivery into the tissue. The mixture was injected into the rete-testis.\nWe used a DND1 (dead end homolog 1)-EGFP mouse to investigate SSC kinetics after BC treatment. In this transgenic mouse, all SSCs including undifferentiated SSCs and differentiating spermatogonia express EGFP. 0.02% BC (or PBS control) was injected into seminiferous tubules of adult testis. […] Although Sertoli cells and germ cells were lost in drug affected tubules, cord structure, Leydig cells, and PMCs were normal."}, "[1]": {"system": "Sertoli cells from canine testis", "test": "Depletion of canine Sertoli cells in vitro (testis fragment culture)", "format": "cell-based", "conditions": "cultured 3 days", "experimental": "(§1) Fragments of the mouse testis were incubated with 0.02% BC for 10 min. After washing several times with PBS, tissues were placed atop 1.5% agarose blocks (214530; Difco), prepared and placed in 6 well tissue culture plates (353046; Falcon) with ˜500 μl of 10% FBS+DMEM (11995-065; Gibco) to reach halfway up the side of the block. After culture, tissues were washed in PBS and fixed for immunofluorescence. The dog testis tissues were incubated with 0.02% or 0.03% BC for 10 min and cultured with 10% KnockOut Serum Replacement (KSR) (Invitrogen; 10828-028)+DMEM (Yokonishi, T., et al. Methods in Molecular Biology 927: 479-488 (2013)). The culture incubator was supplied with 5% (vol/vol) carbon dioxide in air and maintained at 37° C.\nAdult mouse testis and canine testis tissues were fixed in 4% (wt/vol) paraformaldehyde in PBS at 4° C. overnight and cryoembedded in OCT compound (Sakura Finetek). Samples were cut into 14-μm-thick cryosections. Incubation with primary antibodies was performed overnight at 4° C., followed by 2 washes, and incubation with secondary antibodies for 1 h at room temperature. Nuclei were counterstained with Hoechst 33342 dye. Samples were mounted on glass slides and imaged with a confocal laser microscope (Zeiss 780).\nWe used the same procedure as described for the mouse testis to test whether BC could eliminate Sertoli cells from canine testis. Six to 8 […] canine testis tissues were cut into fragments and incubated with 0.02% or 0.03% BC for 10 min (or PBS as a control), washed, and cultured for 3 days (FIG. 4). At the end of that time, the testis was fixed and stained for immunofluorescence analysis using antibodies against SOX9 and the germ cell marker, MVH (mouse vasa homolog). In control tissue, both Sertoli cells and germ cells were detected in seminiferous tubules. […] In control canine testis, GATA-4 positive PMCs and Leydig cells were detected between tubules."}, "Sertoli cells": {"system": "Sertoli cells", "test": "Neonatal testis Sertoli cell selective depletion in vitro (testis tissue culture, immunofluorescence)", "format": "cell-based, mouse", "conditions": "0.02% BC 10 min, cultured 4 days", "experimental": "as §1\nFor cultured neonatal mouse testes, whole-mount immunofluorescence analysis was performed. Samples were fixed overnight with 4% (wt/vol) paraformaldehyde in PBS at 4° C. After several washes in PBTx (PBS plus 1% Triton X-100), samples were incubated in blocking solution (1% PBTx plus 10% FBS and 3% BSA) for 1 h at room temperature. Primary antibodies were diluted in blocking solution and applied to samples for 2 days at 4° C. After several washes in 1% PBT, fluorescent secondary antibodies were applied for 2 days at 4° C.\nWe incubated a neonatal testis in 0.02% BC solution for 10 min (or PBS as a control), washed the testis several times with PBS and cultured for 4 days at the surface/air interface in wells atop an agarose block (FIG. 1). At the end of that time, the testis was fixed and stained for immunofluorescence analysis using an antibody against the Sertoli cell marker, SOX9 (Sry-box 9). […] Although the number of F4/80 positive macrophages was increased in the interstitium of drug treated testis, other cell types in the testis including GFRα1 (GDNF family receptor al) and E-CAD (Cadherin1)-positive SSCs, and 3βHSD (3β-hydroxysteroid dehydrogenase)-positive Leydig cells were spared."}},
  "data": [
    {"substance": "benzalkonium chloride [BC]", "values": [
      {"measurement": "removal of enteric nerve plexus", "setting": "enteric nerve plexus", "result": "remove the mouse and rat enteric nerve plexus"},
      {"measurement": "engrafted testes with full spermatogenesis", "setting": "host spermatogenesis", "result": "2 of 4"},
      {"measurement": "SSC loss (DND1-EGFP)", "setting": "SSCs; 0.02% BC into seminiferous tubules, three days after Sertoli cells were depleted (7 days post BC)", "result": "SSCs had also disappeared"},
      {"measurement": "cord structure, Leydig cells and PMCs in drug affected tubules", "setting": "SSCs; 0.02% BC, 7 days post treatment", "result": "normal"},
      {"measurement": "Sertoli cell depletion (SOX9)", "setting": "[1]; 0.02% BC 10 min", "result": "Sertoli cells were depleted, particularly from the peripheral regions of the tissue"},
      {"measurement": "SSC survival in Sertoli-depleted seminiferous tubules", "setting": "[1]; 0.03% BC 10 min", "result": "some SSCs survived"},
      {"measurement": "Sertoli cell depletion (SOX9)", "setting": "[1]; 0.03% BC 10 min", "result": "all Sertoli cells were absent"},
      {"measurement": "effect on PMCs, SSCs and Leydig cells", "setting": "[1]; 0.03% BC 10 min", "result": "caused some PMC depletion, and reduced the number of SSCs and Leydig cells"},
      {"measurement": "Sertoli cell elimination (SOX9 immunofluorescence)", "setting": "Sertoli cells", "result": "specifically eliminated Sertoli cells"},
      {"measurement": "effect on other testis cell types (GFRα1 and E-CAD-positive SSCs, 3βHSD-positive Leydig cells)", "setting": "Sertoli cells", "result": "spared"},
      {"measurement": "number of F4/80 positive macrophages in the interstitium", "setting": "Sertoli cells", "result": "increased"}
    ]}
  ]
}
